Data as given in patent publication US20020166132A1, “System for regulating in vivo the expression of a transgene by conditional inhibition” (priority 2000, published 2002).

What was measured:
SeAP reporter gene = assay: Circulating SeAP after intramuscular injection and electrotransfer of plasmids into tibialis cranialis muscle of SCID mice; type: in vivo
Procedure: The 6-week-old SCID mice were first anesthetized with a Ketamine/Xylazine mixture (250 μl/mouse). The various plasmids in solution in 150 mM NaCl were then injected intramuscularly into the tibialis cranialis muscle of the mice. […] The amount of circulating SeAP was regularly monitored by taking blood samples and assaying the phosphatase activity using the Phospha-Light kit (Tropix).

[1] = system: SeAP reporter gene (plasmid pRDA02); assay: SeAP expression in C2C12 cells, hPPARγ2 inducible system; type: cell-based, murine; conditions: ratios of columns 3 and 4; 5 and 6; 7 and 8, FIG. 24; BRL49653 at 10^-7 M final
Procedure: FIG. 24: Measurement of the expression of SeAP 5 days after transfection in C2C12 cells with the following plasmids, with and without the chemical inducer BRL49653 at 10^-7 M final:
The cells used were NIHT3T3 murine fibroblasts (ATCC: CRL-1658). These cells were seeded 24 h before transfection, in 6- or 24-well plates, at a density of 5×10^4 cells/well in 1 ml of medium, or of 2.5×10^5 cells/well in 2 ml. The culture medium used was DMEM™ medium (Life Technologies Inc.) supplemented with 10% of calf serum. The cell cultures were incubated in an incubator at 37° C. in a humid atmosphere and under a partial CO2 pressure of 5%. The transfections were carried out approximately 24 h after seeding, when 50 to 80% confluence was obtained. C2C12 cells were murine myoblast cells (ATCC: CRL1772) and were cultured on a DMEM™ medium (Life Technologies Inc.) supplemented with 10% of fetal calf serum to which L-glutamine, 2 mM final, and antibiotics, 50 units final of penicillin and 50 μg/ml of streptomycin, were added.

## CN1CCN(c2ccc3[nH]c(-c4ccc5[nH]c(-c6ccc(O)cc6)nc5c4)nc3c2)CC1
SeAP reporter gene; pXL3010+pSeAPaptazyme, 400 mg/l via the drinking water, Example 14
  SeAP activity with aptamer ligand: restored to a significant level

## CN(CCOc1ccc(CC2SC(=O)NC2=O)cc1)c1ccccn1 (stereo not drawn) [BRL fibrate, rosiglitazone]
[1]
  inducibility of the expression of SeAP in the presence of the antisense transcript: a certain inducibility

## NC[C@@H]1O[C@H](O[C@H]2[C@@H](O)[C@H](O[C@@H]3[C@@H](O)[C@H](N)C[C@H](N)[C@H]3O[C@H]3O[C@H](CN)[C@@H](O)[C@H](O)[C@H]3N)O[C@@H]2CO)[C@H](N)[C@@H](O)[C@@H]1O [neomycin B]
SeAP reporter gene; pXL3010+pSeAPaptamerAS, IP injection approximately 500 μg/mouse, Example 13
  expression of SeAP with aptamer ligand: can be restored
